In the experiment the target is JNK3 (Homo sapiens, UniProt P53779). Description: Measurement of JNK3 enzyme activity. It is filed as biochemical. The text has this:
Experimental Example 1. Measurement of JNK3 Enzyme Activity

As a reminder, the IC50 is the midpoint of a concentration-inhibition curve. The low end stands for greater potency, the high end for weaker potency.

Sequence of JNK3 (P53779 whole entry, species assumed): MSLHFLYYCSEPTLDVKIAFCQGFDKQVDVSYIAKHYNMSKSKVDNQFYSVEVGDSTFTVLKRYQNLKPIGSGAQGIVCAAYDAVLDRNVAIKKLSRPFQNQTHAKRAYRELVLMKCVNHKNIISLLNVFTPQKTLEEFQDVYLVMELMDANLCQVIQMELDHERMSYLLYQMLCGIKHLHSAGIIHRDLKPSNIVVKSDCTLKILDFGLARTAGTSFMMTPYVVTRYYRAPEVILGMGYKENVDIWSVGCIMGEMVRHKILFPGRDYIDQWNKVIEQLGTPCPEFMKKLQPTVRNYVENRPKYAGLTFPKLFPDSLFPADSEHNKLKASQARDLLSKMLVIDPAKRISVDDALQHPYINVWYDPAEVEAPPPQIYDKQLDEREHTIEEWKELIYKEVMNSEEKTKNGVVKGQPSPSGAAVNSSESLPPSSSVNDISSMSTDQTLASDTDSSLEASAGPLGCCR

On to `CCOC(=O)C1Cc2nc(-c3ccc4c(c3)CCO4)n(-c3ccnc(N[C@H]4CCCN(C(=O)C5CC5)C4)n3)c2C1` (stereo partly drawn) [Compound 18e, ethyl 1-(2-(((S)-1-(cyclopropanecarbonyl)piperidin-3-yl)amino)pyrimidin-4-yl)-2-(2,3-dihydrobenzofuran-5-yl)-1,4,5,6-tetracyclopenta[d]imidazol-5-carboxylate], for which, for the setting “Table 5”, the IC50 was < 30 nM. As for `NC(=O)C1Cc2nc(-c3ccc4c(c3)OCO4)n(-c3ccnc(N[C@@H]4CCN(C(=O)C5CC5)C4)n3)c2C1` (stereo partly drawn) [Compound 21d, 2-(benzo[d][1,3]dioxol-5-yl)-1-(2-(((R)-1-(cyclopropanecarbonyl)pyrrolidine-3-yl)amino)pyrimidin-4-yl)-1,4,5,6-tetracyclopenta[d]imidazol-5-carboxamide], the half-maximal inhibitory concentration (IC50) (Table 4) is > 1000 nM.

As to `CCOC(=O)C1Cc2nc(-c3ccc(F)c(C(F)(F)F)c3)n(-c3ccnc(N[C@H]4CCN(C(=O)C5CC5)C4)n3)c2C1` (stereo partly drawn) [Compound 16a, ethyl 1-(2-(((S)-1-(cyclopropanecarbonyl)pyrrolidine-3-yl)amino)pyrimidin-4-yl)-2-(4-fluoro-3-(trifluoromethyl)phenyl)-1,4,5,6-tetracyclopenta[d]imidazol-5-carboxylate], the IC50 (Table 1) was > 1000 nM. As for `NC(=O)C1Cc2nc(-c3ccc4c(c3)OCO4)n(-c3ccnc(N[C@@H]4CCCN(C(=O)C5CC5)C4)n3)c2C1` (some centres unmarked) [Compound 23d], the IC50 (Table 4) is < 30 nM. Turning to `CCOC(=O)C1Cc2nc(-c3ccc4ccccc4c3)n(-c3ccnc(N[C@H]4CCCN(C(=O)C5CC5)C4)n3)c2C1` (stereo partly drawn) [Compound 18c, ethyl 1-(2-(((S)-1-(cyclopropanecarbonyl)piperidin-3-yl)amino)pyrimidin-4-yl)-2-(naphthalen-2-yl)-1,4,5,6-tetracyclopenta[d]imidazol-5-carboxylate], the IC50 (Table 3) is < 30 nM.

For `NC(=O)C1Cc2nc(-c3ccc4ccccc4c3)n(-c3ccnc(N[C@H]4CCN(C(=O)C5CC5)C4)n3)c2C1` (stereo partly drawn) [Compound 20c, 1-(2-(((S)-1-(cyclopropanecarbonyl)pyrrolidine-3-yl)amino)pyrimidin-4-yl)-2-(naphthalen-2-yl)-1,4,5,6-tetracyclopenta[d]imidazol-5-carboxamide], the IC50 (Table 3) is < 30 nM.

Take `NC(=O)C1Cc2nc(-c3ccc4c(c3)CCO4)n(-c3ccnc(N[C@@H]4CCCN(C(=O)C5CC5)C4)n3)c2C1` (stereo partly drawn) [Compound 23e, 1-(2-(((R)-1-(cyclopropanecarbonyl)piperidin-3-yl)amino)pyrimidin-4-yl)-2-(2,3-dihydrobenzofuran-5-yl)-1,4,5,6-tetracyclopenta[d]imidazol-5-carboxamide]: the concentration for half-maximal inhibition (IC50) (Table 5) is < 30 nM. Turning to `NC(=O)C1Cc2nc(-c3ccc(F)c(C(F)(F)F)c3)n(-c3ccnc(NC4CCCN(C(=O)C5CC5)C4)n3)c2C1` (single isomer, unassigned) [Compound 23a], the IC50 (Table 1) is > 1000 nM. Regarding `CCOC(=O)C1Cc2nc(-c3ccc4ccccc4c3)n(-c3ccnc(N[C@H]4CCN(C(=O)C5CC5)C4)n3)c2C1` (stereo partly drawn) [Compound 16c, ethyl 1-(2-(((S)-1-(cyclopropanecarbonyl)pyrrolidine-3-yl)amino)pyrimidin-4-yl)-2-(naphthalen-2-yl)-1,4,5,6-tetracyclopenta[d]imidazol-5-carboxylate], the IC50 (Table 3) was < 30 nM. `CNC(=O)C1Cc2nc(-c3ccc4c(c3)OCO4)n(-c3ccnc(NC4CCN(C(=O)C5CC5)C4)n3)c2C1` (single isomer, unassigned) [Compound 24d]: the IC50 (Table 4) is > 1000 nM. `NC(=O)C1Cc2nc(-c3ccc(Cl)c(Cl)c3)n(-c3ccnc(N[C@@H]4CCN(C(=O)C5CC5)C4)n3)c2C1` (stereo partly drawn) [Compound 21b, 1-(2-(((R)-1-(cyclopropanecarbonyl)pyrrolidine-3-yl)amino)pyrimidin-4-yl)-2-(3,4-dichlorophenyl)-1,4,5,6-tetracyclopenta[d]imidazol-5-carboxamide]: the 50% inhibitory concentration (IC50) (Table 2) was < 30 nM.

In the case of `NC(=O)C1Cc2nc(-c3ccc4c(c3)CCO4)n(-c3ccnc(N[C@H]4CCN(C(=O)C5CC5)C4)n3)c2C1` (stereo partly drawn) [Compound 20e, 1-(2-(((S)-1-(cyclopropanecarbonyl)pyrrolidine-3-yl)amino)pyrimidin-4-yl)-2-(2,3-dihydrobenzofuran-5-yl)-1,4,5,6-tetracyclopenta[d]imidazol-5-carboxamide], the IC50 (Table 5) is < 30 nM. For the compound `CNC(=O)C1Cc2nc(-c3ccc4c(c3)OCO4)n(-c3ccnc(N[C@@H]4CCN(C(=O)C5CC5)C4)n3)c2C1` (some centres unmarked) [Compound 25d], the IC50 (Table 4) was < 30 nM. With `CNC(=O)C1Cc2nc(-c3ccc4c(c3)CCO4)n(-c3ccnc(N[C@H]4CCCN(C(=O)C5CC5)C4)n3)c2C1` (stereo partly drawn) [Compound 26e, 1-(2-(((S)-1-(cyclopropanecarbonyl)piperidin-3-yl)amino)pyrimidin-4-yl)-2-(2,3-dihydrobenzofuran-5-yl)-N-methyl-1,4,5,6-tetracyclopenta[d]imidazol-5-carboxamide], under “Table 5”, the IC50 is > 1000 nM. `CCOC(=O)C1Cc2nc(-c3ccc4c(c3)OCO4)n(-c3ccnc(N[C@H]4CCN(C(=O)C5CC5)C4)n3)c2C1` (stereo partly drawn) [Compound 16d, ethyl 2-(benzo[d][1,3]dioxol-5-yl)-1-(2-(((S)-1-(cyclopropanecarbonyl)pyrrolidine-3-yl)amino)pyrimidin-4-yl)-1,4,5,6-tetracyclopenta[d]imidazol-5-carboxylate]: the IC50 (Table 4) was > 1000 nM. As to `CNC(=O)C1Cc2nc(-c3ccc(F)c(C(F)(F)F)c3)n(-c3ccnc(N[C@H]4CCN(C(=O)C5CC5)C4)n3)c2C1` (stereo partly drawn) [Compound 24a, 1-(2-(((S)-1-(cyclopropanecarbonyl)pyrrolidine-3-yl)amino)pyrimidin-4-yl)-2-(4-fluoro-3-(trifluoromethyl)phenyl)-N-methyl-1,4,5,6-tetracyclopenta[d]imidazol-5-carboxamide], where the note is “Table 1”, the concentration for half-maximal inhibition (IC50) is > 1000 nM. On to `NC(=O)C1Cc2nc(-c3ccc4c(c3)OCO4)n(-c3ccnc(N[C@H]4CCN(C(=O)C5CC5)C4)n3)c2C1` (stereo partly drawn) [Compound 20d, 2-(benzo[d][1,3]dioxol-5-yl)-1-(2-(((S)-1-(cyclopropanecarbonyl)pyrrolidine-3-yl)amino)pyrimidin-4-yl)-1,4,5,6-tetracyclopenta[d]imidazol-5-carboxamide], for which, under “Table 4”, the IC50 is > 1000 nM. `NC(=O)C1Cc2nc(-c3ccc(F)c(C(F)(F)F)c3)n(-c3ccnc(NC4CCCN(C(=O)C5CC5)C4)n3)c2C1` (single isomer, unassigned) [Compound 22a]: for the setting “Table 1”, the IC50 was < 30 nM. Take `NC(=O)C1Cc2nc(-c3ccc4c(c3)CCO4)n(-c3ccnc(N[C@@H]4CCN(C(=O)C5CC5)C4)n3)c2C1` (stereo partly drawn) [Compound 21e, 1-(2-(((R)-1-(cyclopropanecarbonyl)pyrrolidine-3-yl)amino)pyrimidin-4-yl)-2-(2,3-dihydrobenzofuran-5-yl)-1,4,5,6-tetracyclopenta[d]imidazol-5-carboxamide]: where the note is “Table 5”, the IC50 is < 30 nM. The same measure, in the same setting: to `CCOC(=O)C1Cc2nc(-c3ccc4c(c3)CCO4)n(-c3ccnc(N[C@H]4CCN(C(=O)C5CC5)C4)n3)c2C1` (stereo partly drawn) [Compound 16e, ethyl 1-(2-(((S)-1-(cyclopropanecarbonyl)pyrrolidine-3-yl)amino)pyrimidin-4-yl)-2-(2,3-dihydrobenzofuran-5-yl)-1,4,5,6-tetracyclopenta[d]imidazol-5-carboxylate] belongs > 1000 nM. Same read-out and setting: to `CCOC(=O)C1Cc2nc(-c3ccc4c(c3)CCO4)n(-c3ccnc(N[C@@H]4CCN(C(=O)C5CC5)C4)n3)c2C1` (stereo partly drawn) [Compound 17e, ethyl 1-(2-(((R)-1-(cyclopropanecarbonyl)pyrrolidine-3-yl)amino)pyrimidin-4-yl)-2-(2,3-dihydrobenzofuran-5-yl)-1,4,5,6-tetracyclopenta[d]imidazol-5-carboxylate] belongs < 30 nM. In the case of `CNC(=O)C1Cc2nc(-c3ccc(F)c(C(F)(F)F)c3)n(-c3ccnc(NC4CCCN(C(=O)C5CC5)C4)n3)c2C1` (single isomer, unassigned) [Compound 27a], where the note is “Table 1”, the 50% inhibitory concentration (IC50) is > 1000 nM. In the case of `CCOC(=O)C1Cc2nc(-c3ccc(Cl)c(Cl)c3)n(-c3ccnc(N[C@@H]4CCCN(C(=O)C5CC5)C4)n3)c2C1` (stereo partly drawn) [Compound 19b, ethyl 1-(2-(((R)-1-(cyclopropanecarbonyl)piperidin-3-yl)amino)pyrimidin-4-yl)-2-(3,4-dichlorophenyl)-1,4,5,6-tetracyclopenta[d]imidazol-5-carboxylate], for the setting “Table 2”, the IC50 is < 30 nM.

With `NC(=O)C1Cc2nc(-c3ccc(Cl)c(Cl)c3)n(-c3ccnc(N[C@@H]4CCCN(C(=O)C5CC5)C4)n3)c2C1` (stereo partly drawn) [Compound 23b, 1-(2-(((R)-1-(cyclopropanecarbonyl)piperidin-3-yl)amino)pyrimidin-4-yl)-2-(3,4-dichlorophenyl)-1,4,5,6-tetracyclopenta[d]imidazol-5-carboxamide], for the setting “Table 2”, the IC50 was < 30 nM. Turning to `CNC(=O)C1Cc2nc(-c3ccc(F)c(C(F)(F)F)c3)n(-c3ccnc(NC4CCCN(C(=O)C5CC5)C4)n3)c2C1` (single isomer, unassigned) [Compound 26a], where the note is “Table 1”, the IC50 is < 30 nM.

For the compound `CCOC(=O)C1Cc2nc(-c3ccc(F)c(C(F)(F)F)c3)n(-c3ccnc(N[C@H]4CCCN(C(=O)C5CC5)C4)n3)c2C1` (stereo partly drawn) [Compound 18a, ethyl 1-(2-(((S)-1-(cyclopropanecarbonyl)piperidin-3-yl)amino)pyrimidin-4-yl)-2-(4-fluoro-3-(trifluoromethyl)phenyl)-1,4,5,6-tetracyclopenta[d]imidazol-5-carboxylate], under “Table 1”, the IC50 is < 30 nM. For `CNC(=O)C1Cc2nc(-c3ccc(F)c(-c4ccc5ccccc5c4)c3)n(-c3ccnc(N[C@@H]4CCCN(C(=O)C5CC5)C4)n3)c2C1` (some centres unmarked) [Compound 27c], under “Table 3”, the IC50 was < 30 nM. On to `CCOC(=O)C1Cc2nc(-c3ccc4ccccc4c3)n(-c3ccnc(N[C@@H]4CCN(C(=O)C5CC5)C4)n3)c2C1` (stereo partly drawn) [Compound 17c, ethyl 1-(2-(((R)-1-(cyclopropanecarbonyl)pyrrolidine-3-yl)amino)pyrimidin-4-yl)-2-(naphthalen-2-yl)-1,4,5,6-tetracyclopenta[d]imidazol-5-carboxylate], for which the IC50 (Table 3) is < 30 nM.

For `NC(=O)C1Cc2nc(-c3ccc4c(c3)OCO4)n(-c3ccnc(N[C@H]4CCCN(C(=O)C5CC5)C4)n3)c2C1` (stereo partly drawn) [Compound 22d, 2-(benzo[d][1,3]dioxol-5-yl)-1-(2-(((S)-1-(cyclopropanecarbonyl)piperidin-3-yl)amino)pyrimidin-4-yl)-1,4,5,6-tetracyclopenta[d]imidazol-5-carboxamide], where the note is “Table 4”, the IC50 was < 30 nM.

The values are drawn from patent US20240299386A1, “Novel imidazole derivatives having protein kinase inhibitory activity and uses thereof” (INDUSTRY-UNIVERSITY COOPERATION FOUNDATION HANYANG …, priority 2021, published 2024).
